According to the supplement of paper PMC10307832:

Legend:
Assay in all cases: relative viability (nuclei count vs DMSO), 5 days (fraction); higher = more cells survive
[1] = compound: CO[C@H]1C[C@@H]2CC[C@@H](C)[C@@](O)(O2)C(=O)C(=O)N2CCCC[C@H]2C(=O)O[C@H]([C@H](C)C[C@@H]2CC[C@@H](OCCO)[C@H](OC)C2)CC(=O)[C@H](C)/C=C(\C)[C@@H](O)[C@@H](OC)C(=O)[C@H](C)C[C@H](C)/C=C/C=C/C=C/1C [Everolimus] + CC(=O)c1c(C)c2cnc(Nc3ccc(N4CCNCC4)cn3)nc2n(C2CCCC2)c1=O [Palbociclib] (partner 0.5 µM)
How it was run: (§1)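 Values are medians from duplicate plates. Each reflects relative viability, defined as the nuclei count of treated wells over that of vehicle wells. Lung cancer cell lines in 1536-well plates were pin-tool dosed one day after seeding with one drug alone or with a fixed anchor-drug dose plus five library-drug doses (not always all listed) in √10 steps, then fixed, stained and imaged at 4× after 5 days.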

[2] = compound: CO[C@H]1C[C@@H]2CC[C@@H](C)[C@@](O)(O2)C(=O)C(=O)N2CCCC[C@H]2C(=O)O[C@H]([C@H](C)C[C@@H]2CC[C@@H](OCCO)[C@H](OC)C2)CC(=O)[C@H](C)/C=C(\C)[C@@H](O)[C@@H](OC)C(=O)[C@H](C)C[C@H](C)/C=C/C=C/C=C/1C [Everolimus] + Cc1nc(NC(=O)N2CCC[C@H]2C(N)=O)sc1-c1ccnc(C(C)(C)C(F)(F)F)c1 [Alpelisib] (partner 2 µM)
How it was run: as §1

[3] = compound: CO[C@H]1C[C@@H]2CC[C@@H](C)[C@@](O)(O2)C(=O)C(=O)N2CCCC[C@H]2C(=O)O[C@H]([C@H](C)C[C@@H]2CC[C@@H](OCCO)[C@H](OC)C2)CC(=O)[C@H](C)/C=C(\C)[C@@H](O)[C@@H](OC)C(=O)[C@H](C)C[C@H](C)/C=C/C=C/C=C/1C [Everolimus] + CC(C)C[C@H](NC(=O)[C@H](Cc1ccccc1)NC(=O)c1cnccn1)B(O)O [Bortezomib] (partner 0.002 µM)
How it was run: as §1

[4] = compound: CO[C@H]1C[C@@H]2CC[C@@H](C)[C@@](O)(O2)C(=O)C(=O)N2CCCC[C@H]2C(=O)O[C@H]([C@H](C)C[C@@H]2CC[C@@H](OCCO)[C@H](OC)C2)CC(=O)[C@H](C)/C=C(\C)[C@@H](O)[C@@H](OC)C(=O)[C@H](C)C[C@H](C)/C=C/C=C/C=C/1C [Everolimus] + Cc1nc(Nc2ncc(C(=O)Nc3c(C)cccc3Cl)s2)cc(N2CCN(CCO)CC2)n1 [Dasatinib] (partner 0.075 µM)
How it was run: as §1

| Cell Line | relative viability ([1]; first compound 0.01 µM) | relative viability ([1]; first compound 0.03162 µM) | relative viability ([1]; first compound 0.1 µM) | relative viability ([1]; first compound 0.3162 µM) | relative viability ([1]; first compound 1 µM) | relative viability ([2]; first compound 0.01 µM) | relative viability ([2]; first compound 0.03162 µM) | relative viability ([2]; first compound 0.1 µM) | relative viability ([2]; first compound 0.3162 µM) | relative viability ([2]; first compound 1 µM) | relative viability ([3]; first compound 0.01 µM) | relative viability ([3]; first compound 0.03162 µM) | relative viability ([3]; first compound 0.1 µM) | relative viability ([3]; first compound 0.3162 µM) | relative viability ([3]; first compound 1 µM) | relative viability ([4]; first compound 0.01 µM) | relative viability ([4]; first compound 0.03162 µM) | relative viability ([4]; first compound 0.1 µM) | relative viability ([4]; first compound 0.3162 µM) | relative viability ([4]; first compound 1 µM) |
| --- | --- | --- | --- | --- | --- | --- | --- | --- | --- | --- | --- | --- | --- | --- | --- | --- | --- | --- | --- | --- |
| NCI-H1755 | 0.407 | 0.395 | 0.378 | 0.361 | 0.356 | 0.646 | 0.659 | 0.653 | 0.643 | 0.611 | 0.785 | 0.492 | 0.736 | 0.723 | 0.714 | 0.421 | 0.232 | 0.37 | 0.419 | 0.318 |
| NCI-H2228 | 0.597 | 0.403 | 0.337 | 0.408 | 0.339 | 0.463 | 0.431 | 0.418 | 0.385 | 0.266 | 0.705 | 0.7 | 0.645 | 0.515 | 0.614 | 0.335 | 0.394 | 0.246 | 0.271 | 0.253 |
| NCI-H2087 | 0.235 | 0.195 | 0.163 | 0.217 | 0.245 | 0.796 | 0.897 | 0.839 | 0.663 | 0.657 | 0.699 | 0.957 | 0.625 | 0.75 | 0.837 | 0.748 | 0.648 | 0.695 | 0.786 | 0.667 |
| LU99A | 0.242 | 0.237 | 0.234 | 0.203 | 0.243 | 0.284 | 0.278 | 0.294 | 0.259 | 0.315 | 0.647 | 0.599 | 0.543 | 0.568 | 0.614 | 0.452 | 0.499 | 0.439 | 0.284 | 0.35 |
| NCI-H1355 | 0.229 | 0.233 | 0.207 | 0.213 | 0.21 | 0.415 | 0.277 | 0.309 | 0.327 | 0.321 | 0.611 | 0.567 | 0.593 | 0.592 | 0.564 | 0.436 | 0.402 | 0.315 | 0.334 | 0.316 |
| NCI-H520 | 0.155 | 0.182 | 0.194 | 0.14 | 0.194 | 0.434 | 0.474 | 0.335 | 0.296 | 0.257 | 0.327 | 0.282 | 0.243 | 0.195 | 0.276 | 0.118 | 0.143 | 0.176 | 0.144 | 0.176 |
| NCI-H1299 |  |  |  |  |  | 1.04 | 1.09 | 1.01 | 1.06 | 1.06 | 1.04 | 1.08 | 1.02 | 1.07 | 1.1 |  |  |  |  |  |
| LK-2 | 0.536 | 0.312 | 0.321 | 0.314 | 0.33 | 0.827 |  | 0.607 | 0.568 | 0.556 |  |  |  |  |  | 0.231 |  | 0.239 | 0.209 | 0.306 |
| NCI-H1944 | 0.214 | 0.195 | 0.196 | 0.23 | 0.202 | 0.592 | 0.565 | 0.593 | 0.564 | 0.562 |  |  |  |  |  | 0.179 | 0.193 | 0.157 | 0.184 | 0.157 |
| NCI-H1650 | 0.305 | 0.293 | 0.304 | 0.278 | 0.238 |  |  |  |  |  | 0.196 | 0.186 | 0.179 | 0.243 | 0.199 | 0.288 | 0.225 | 0.263 | 0.315 | 0.295 |
| NCI-H596 |  |  |  |  |  | 0.386 | 0.297 | 0.347 | 0.382 | 0.37 | 0.813 | 0.716 | 0.658 | 0.612 | 0.589 | 0.395 | 0.428 | 0.392 | 0.462 | 0.482 |
| NCI-H2342 | 0.48 | 0.407 | 0.493 | 0.44 | 0.463 |  |  |  |  |  |  |  |  |  |  | 0.274 | 0.323 | 0.277 | 0.262 | 0.319 |
| SK-MES-1 | 0.239 | 0.264 | 0.258 | 0.273 | 0.243 | 0.486 | 0.461 |  | 0.44 | 0.368 |  |  |  |  |  | 0.357 | 0.339 | 0.398 | 0.346 | 0.331 |
| NCI-H2170 | 0.195 | 0.187 | 0.162 | 0.16 | 0.186 | 0.365 | 0.367 | 0.333 | 0.312 | 0.354 |  |  |  |  |  | 0.366 | 0.292 | 0.312 | 0.302 | 0.262 |
| NCI-H358 | 0.136 | 0.15 | 0.129 | 0.11 | 0.128 | 0.504 | 0.362 | 0.438 | 0.445 | 0.402 |  |  |  |  |  | 0.115 | 0.138 | 0.133 | 0.0942 | 0.114 |
| NCI-H1563 |  |  |  |  |  | 0.715 | 0.717 | 0.662 | 0.641 | 0.685 | 0.665 | 0.724 | 0.762 | 0.715 | 0.704 | 0.434 | 0.419 | 0.462 | 0.464 | 0.437 |
| EBC-1 |  |  |  |  |  | 0.278 | 0.348 | 0.284 | 0.33 | 0.279 | 0.344 | 0.406 | 0.314 | 0.424 | 0.255 |  |  |  |  |  |
| Calu-6 |  |  |  |  |  | 0.65 | 0.604 | 0.593 | 0.608 | 0.614 | 0.91 | 0.9 | 0.901 | 0.937 | 0.78 |  |  |  |  |  |
| HCC-44 | 1.01 | 1 | 0.997 | 1.07 | 1.1 | 0.616 | 0.597 | 0.44 | 0.511 | 0.44 | 0.978 | 0.958 | 0.937 | 1.08 | 0.858 |  |  |  |  |  |
